Measurements: patent US7341749B2, “Flavopereirine and alstonine combinations in the treatment and prevention of prostate cancer” (Natural Source International Ltd., priority 2004, dated 2008)

Test system: LNCaP cells
Assay: Induction of apoptosis (PARP cleavage, Caspase-3 activity)
Assay type: cell-based, human
Details: inferred from the extract experiments

Compound	induction of the apoptosis pathway (mechanism of action of the active compound)
COC(=O)C1=CO[C@@H](C)[C@@H]2Cn3ccc4c5ccccc5nc-4c3C[C@H]12 [alstonine]	relatively minor effect
CCc1ccc2c3[nH]c4ccccc4c3cc[n+]2c1 [flavopereirine]	primary mechanism of action
